Data published in patent US10759783B2, “Biaryl inhibitors of Bruton'S tyrosine kinase” (BIOGEN MA INC., priority 2013, dated 2020).

Assays:
[1] = target: BTK (phospho-BTK) in human whole blood (Homo sapiens, UniProt Q06187); assay: In vitro PD assay in human whole blood (pBTK assay)
BTK enzyme = target: T1, BTK enzyme (Homo sapiens, UniProt Q06187); assay: In vitro BTK kinase assay: BTK-POLYGAT-LS assay; assay type: biochemical; settings: ATP 10 μM, read-out: IC50 (10uMATP)
T1 construct: purchased Upstate 14-552
How it was run: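 Human BTK activity was measured with final 10 μM ATP and 100 nM polyGAT substrate in pH 7.5 Tris buffer with 10 mM MgCl2, DTT, Triton X-100 and casein.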

Sequence of BTK (phospho-BTK) in human whole blood (Q06187 whole entry): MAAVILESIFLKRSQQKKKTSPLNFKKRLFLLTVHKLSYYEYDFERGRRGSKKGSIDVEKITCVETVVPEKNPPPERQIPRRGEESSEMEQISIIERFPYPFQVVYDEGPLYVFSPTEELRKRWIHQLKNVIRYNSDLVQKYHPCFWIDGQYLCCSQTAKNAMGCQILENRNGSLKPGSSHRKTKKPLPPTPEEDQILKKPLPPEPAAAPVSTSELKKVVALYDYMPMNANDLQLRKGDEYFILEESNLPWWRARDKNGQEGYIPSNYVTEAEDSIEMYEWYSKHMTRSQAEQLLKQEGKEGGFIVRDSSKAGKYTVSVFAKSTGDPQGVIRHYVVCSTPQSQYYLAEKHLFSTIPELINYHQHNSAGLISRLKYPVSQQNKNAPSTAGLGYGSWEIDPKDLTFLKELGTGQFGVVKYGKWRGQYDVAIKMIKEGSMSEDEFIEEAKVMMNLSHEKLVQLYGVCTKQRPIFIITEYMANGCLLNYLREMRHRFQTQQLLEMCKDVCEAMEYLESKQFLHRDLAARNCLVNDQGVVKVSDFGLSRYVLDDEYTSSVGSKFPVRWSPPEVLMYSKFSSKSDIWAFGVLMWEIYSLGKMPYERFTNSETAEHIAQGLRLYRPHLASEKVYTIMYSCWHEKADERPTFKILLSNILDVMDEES
T1 sequence (Q06187 whole entry): as above

Row | IC50 [1] [nM] | IC50 (BTK enzyme) [nM] | Structure (SMILES)
1 | < 500 | < 10 | CN1CC(n2cc(Nc3nccc(-c4ccc(CNC(=O)c5cc(C(C)(C)C)on5)c(Cl)c4)n3)cn2)C1 [Example I-354, 5-tert-butyl-N-[[2-chloro-4-[2-[[1-(1-methylazetidin-3-yl)pyrazol-4-yl]amino]pyrimidin-4-yl]phenyl]methyl]isoxazole-3-carboxamide]
2 | < 500 | < 10 | CN1CC(n2cc(Nc3nccc(-c4ccc(CNC(=O)c5cc(C(C)(C)C)on5)c(C(F)(F)F)c4)n3)cn2)C1 [Example I-355, 5-tert-butyl-N-[[4-[2-[[1-(1-methylazetidin-3-yl)pyrazol-4-yl]amino]pyrimidin-4-yl]-2-(trifluoromethyl)phenyl]methyl]isoxazole-3-carboxamide]
3 | < 500 | < 10 | CN1CC(n2cc(Nc3nccc(-c4ccc(CNC(=O)c5cnn(C(C)(C)C)c5)c(Cl)c4)n3)cn2)C1 [Example I-356, 1-tert-butyl-N-[[2-chloro-4-[2-[[1-(1-methylazetidin-3-yl)pyrazol-4-yl]amino]pyrimidin-4-yl]phenyl]methyl]pyrazole-4-carboxamide]
4 | < 500 | < 10 | Cc1cc(-c2cc(Nc3ccn([C@@H]4CCOC4)n3)ncn2)ccc1CNC(=O)c1cnc(C(C)(C)C)s1 [Example I-357, 2-tert-butyl-N-[[2-methyl-4-[6-[[1-[(3R)-tetrahydrofuran-3-yl]pyrazol-3-yl]amino]pyrimidin-4-yl]phenyl]methyl]thiazole-5-carboxamide]
5 | < 500 | < 10 | Cc1cc(-c2cc(Nc3ccn(C4CCN(C)CC4)n3)ncn2)ccc1CNC(=O)c1cnc(C(C)(C)C)s1 [Example I-358, 2-tert-butyl-N-[[2-methyl-4-[6-[[1-(1-methyl-4-piperidyl)pyrazol-3-yl]amino]pyrimidin-4-yl]phenyl]methyl]thiazole-5-carboxamide]
6 | < 500 | < 10 | CCn1cc(Nc2nccc(-c3ccc(CNC(=O)N4CC(OC(C)C)C4)c(C)c3)n2)cn1 [Example I-360, N-[[4-[2-[(1-ethylpyrazol-4-yl)amino]pyrimidin-4-yl]-2-methyl-phenyl]methyl]-3-isopropoxy-azetidine-1-carboxamideacid]

Row | Structure (SMILES) | IC50 [1] [nM] | IC50 (BTK enzyme) [nM]
7 | Cn1cc(Nc2nccc(-c3ccc4c(c3)CCCC4NC(=O)N3CC(OC(C)(C)C)C3)n2)cn1 (centres unmarked) [Example I-359, 3-tert-butoxy-N-[6-[2-[(1-methylpyrazol-4-yl)amino]pyrimidin-4-yl]tetralin-1-yl]azetidine-1-carboxamide] | < 500 | < 10
